In ChEMBL document CHEMBL3045375, “Synthesis, characterization and biological activity of some new carbostyril bearing 1H-pyrazole moiety” (2012) one finds MIC data, which are given here for 22 compounds.

What all share (format): functional
One test concerns Candida albicans. Nature of the test: Antifungal activity against Candida albicans MTCC 227 after 48 hr by broth microdilution method. (Dilution methods test growth across graded concentrations, often in twofold steps.)
Another test deals with Aspergillus fumigatus. Nature of the test: Antifungal activity against Aspergillus fumigatus MTCC 3008 after 48 hr by broth microdilution method.
The next test has as its system Escherichia coli. Nature of the test: Antibacterial activity against Escherichia coli MTCC 443 after 24 hr by broth microdilution method. The note with it: MTCC 443, 24 h.
The test system of a further test is Bacillus subtilis. Nature of the test: Antibacterial activity against Bacillus subtilis MTCC 441 after 24 hr by broth microdilution method.
A further test concerns Streptococcus pneumoniae. Nature of the test: Antibacterial activity against Streptococcus pneumoniae MTCC 1936 after 24 hr by broth microdilution method. The note with it: MTCC 1936, 24 h.

Values after ≈ are worked out from the molar mass of the structure shown.

On to `O=C1CCCC2=C1C(c1cn(-c3ccccc3)nc1-c1ccc(F)cc1)CC(=O)N2c1ccc(F)cc1` (centres undefined), for which the MIC was 500 mg/L (≈ 1010 µM) against Candida albicans (MTCC 227, 48 h); 1000 mg/L (≈ 2020 µM) against Aspergillus fumigatus (MTCC 3008, 48 h); 250 mg/L (≈ 505 µM) against Escherichia coli; 0.1 mg/L (≈ 0.202 µM) against Bacillus subtilis (MTCC 441, 24 h); 200 mg/L (≈ 404 µM) against Streptococcus pneumoniae.
Take `CC1(C)CC(=O)C2=C(C1)N(c1ccc(F)cc1)C(=O)CC2c1cn(-c2ccccc2)nc1-c1ccc(F)cc1` (centres undefined): the MIC came to 500 mg/L (≈ 955 µM) with Candida albicans (MTCC 227, 48 h); 1000 mg/L (≈ 1910 µM) in the test with Aspergillus fumigatus (MTCC 3008, 48 h); 150 mg/L (≈ 286 µM) against Escherichia coli; 0.5 mg/L (≈ 0.955 µM) with Bacillus subtilis (MTCC 441, 24 h); 500 mg/L (≈ 955 µM) against Streptococcus pneumoniae.
Consider `O=C1CCCC2=C1C(c1cn(-c3ccccc3)nc1-c1cccs1)CC(=O)N2c1ccc(F)cc1` (centres undefined), for which the MIC against Candida albicans (MTCC 227, 48 h) worked out at 500 mg/L (≈ 1030 µM); against Aspergillus fumigatus (MTCC 3008, 48 h), 1000 mg/L (≈ 2070 µM); against Escherichia coli it was 100 mg/L (≈ 207 µM); against Bacillus subtilis (MTCC 441, 24 h), 0.25 mg/L (≈ 0.517 µM); against Streptococcus pneumoniae, 200 mg/L (≈ 414 µM).
Taken in the same sequence, the figures for `O=C1CCCC2=C1C(c1cn(-c3ccccc3)nc1-c1ccc([N+](=O)[O-])cc1)CC(=O)N2c1ccc(F)cc1` (centres undefined) were 500 mg/L (≈ 957 µM), 1000 mg/L (≈ 1910 µM), 62.5 mg/L (≈ 120 µM), 0.2 mg/L (≈ 0.383 µM) and 100 mg/L (≈ 191 µM).
Consider `O=C1CCCC2=C1C(c1cn(-c3ccccc3)nc1-c1ccc(Cl)cc1)CC(=O)N2c1ccc(F)cc1` (centres undefined), for which the MIC against Candida albicans (MTCC 227, 48 h) is 500 mg/L (≈ 977 µM); in the test with Aspergillus fumigatus (MTCC 3008, 48 h), above 1000 mg/L; against Escherichia coli, 100 mg/L (≈ 195 µM); in the test on Bacillus subtilis (MTCC 441, 24 h), 0.25 mg/L (≈ 0.488 µM); in the test with Streptococcus pneumoniae, 250 mg/L (≈ 488 µM).
Turning to `COC1=CC(=O)C[C@@H](C)[C@]12Oc1c(Cl)c(OC)cc(OC)c1C2=O` [GRISEOFULVIN], the MIC in the test on Candida albicans (MTCC 227, 48 h) stood at 500 mg/L (≈ 1420 µM); with Aspergillus fumigatus (MTCC 3008, 48 h), 100 mg/L (≈ 283 µM).
`COc1ccc(-c2nn(-c3ccccc3)cc2C2CC(=O)N(c3ccc(F)cc3)C3=C2C(=O)CC(C)(C)C3)cc1` (centres undefined): the MIC came to 1000 mg/L (≈ 1870 µM) with Candida albicans (MTCC 227, 48 h); 1000 mg/L (≈ 1870 µM) against Aspergillus fumigatus (MTCC 3008, 48 h); 250 mg/L (≈ 467 µM) in the test on Escherichia coli; 0.2 mg/L (≈ 0.373 µM) against Bacillus subtilis (MTCC 441, 24 h); 100 mg/L (≈ 187 µM) in the test with Streptococcus pneumoniae.
As for `CC1(C)CC(=O)C2=C(C1)N(c1ccc(F)cc1)C(=O)CC2c1cn(-c2ccccc2)nc1-c1cccs1` (centres undefined), the MIC is 500 mg/L (≈ 977 µM) in the test on Candida albicans (MTCC 227, 48 h); 1000 mg/L (≈ 1950 µM) against Aspergillus fumigatus (MTCC 3008, 48 h); 200 mg/L (≈ 391 µM) in the test on Escherichia coli; 0.25 mg/L (≈ 0.489 µM) with Bacillus subtilis (MTCC 441, 24 h); 500 mg/L (≈ 977 µM) in the test with Streptococcus pneumoniae.
In the case of `CC1(C)CC(=O)C2=C(C1)N(c1ccc(F)cc1)C(=O)CC2c1cn(-c2ccccc2)nc1-c1ccccc1` (centres undefined), the MIC was determined as 500 mg/L (≈ 989 µM) in the test with Candida albicans (MTCC 227, 48 h); 500 mg/L (≈ 989 µM) against Aspergillus fumigatus (MTCC 3008, 48 h); 500 mg/L (≈ 989 µM) against Escherichia coli; 0.2 mg/L (≈ 0.396 µM) in the test with Bacillus subtilis (MTCC 441, 24 h); 150 mg/L (≈ 297 µM) in the test with Streptococcus pneumoniae.
Turning to `O=C1CCCC2=C1C(c1cn(-c3ccccc3)nc1-c1ccccc1)CC(=O)N2c1ccc(F)cc1` (centres undefined), the MIC is above 1000 mg/L in the test with Candida albicans (MTCC 227, 48 h); above 1000 mg/L with Aspergillus fumigatus (MTCC 3008, 48 h); 500 mg/L (≈ 1050 µM) with Escherichia coli; 0.5 mg/L (≈ 1.05 µM) with Bacillus subtilis (MTCC 441, 24 h); 500 mg/L (≈ 1050 µM) with Streptococcus pneumoniae.
As for `Cc1ccc(-c2nn(-c3ccccc3)cc2C2CC(=O)N(c3ccc(F)cc3)C3=C2C(=O)CC(C)(C)C3)cc1` (centres undefined), the MIC in the test on Candida albicans (MTCC 227, 48 h) was found to be 500 mg/L (≈ 962 µM); against Aspergillus fumigatus (MTCC 3008, 48 h), 500 mg/L (≈ 962 µM); against Escherichia coli, 500 mg/L (≈ 962 µM); against Bacillus subtilis (MTCC 441, 24 h) it was 0.5 mg/L (≈ 0.962 µM); against Streptococcus pneumoniae, 100 mg/L (≈ 192 µM).
For `CC1(C)CC(=O)C2=C(C1)N(c1ccc(F)cc1)C(=O)CC2c1cn(-c2ccccc2)nc1-c1ccc(Br)cc1` (centres undefined), the MIC stood at 100 mg/L (≈ 171 µM) in the test with Candida albicans (MTCC 227, 48 h); 100 mg/L (≈ 171 µM) against Aspergillus fumigatus (MTCC 3008, 48 h); 500 mg/L (≈ 855 µM) against Escherichia coli; 0.5 mg/L (≈ 0.855 µM) in the test on Bacillus subtilis (MTCC 441, 24 h); 250 mg/L (≈ 428 µM) with Streptococcus pneumoniae.
With `O=C(O)c1cn(C2CC2)c2cc(N3CCNCC3)c(F)cc2c1=O` [CIPROFLOXACIN], the MIC worked out at 25 mg/L (≈ 75.4 µM) in the test on Escherichia coli; 0.05 mg/L (≈ 0.151 µM) in the test on Bacillus subtilis (MTCC 441, 24 h); 50 mg/L (≈ 151 µM) against Streptococcus pneumoniae.
As for `Cc1ccc(-c2nn(-c3ccccc3)cc2C2CC(=O)N(c3ccc(F)cc3)C3=C2C(=O)CCC3)cc1` (centres undefined), the MIC against Candida albicans (MTCC 227, 48 h) was determined as 1000 mg/L (≈ 2030 µM); in the test with Aspergillus fumigatus (MTCC 3008, 48 h), 500 mg/L (≈ 1020 µM); in the test on Escherichia coli, 250 mg/L (≈ 509 µM); with Bacillus subtilis (MTCC 441, 24 h), 0.25 mg/L (≈ 0.509 µM); in the test on Streptococcus pneumoniae, 100 mg/L (≈ 203 µM).
Turning to GENTAMICIN, in the test on Bacillus subtilis, the lowest concentration to inhibit growth (MIC) was 0.001 mg/L.
On to `O=C1CCCC2=C1C(c1cn(-c3ccccc3)nc1-c1ccc(Br)cc1)CC(=O)N2c1ccc(F)cc1` (centres undefined), for which the MIC against Candida albicans (MTCC 227, 48 h) is 500 mg/L (≈ 899 µM); in the test on Aspergillus fumigatus (MTCC 3008, 48 h), above 1000 mg/L; against Escherichia coli, 62.5 mg/L (≈ 112 µM); in the test on Bacillus subtilis (MTCC 441, 24 h), 0.5 mg/L (≈ 0.899 µM); in the test on Streptococcus pneumoniae it was 250 mg/L (≈ 449 µM).
In the case of `CC1(C)CC(=O)C2=C(C1)N(c1ccc(F)cc1)C(=O)CC2c1cn(-c2ccccc2)nc1-c1ccc(Cl)cc1` (centres undefined), the MIC against Candida albicans (MTCC 227, 48 h) came to 1000 mg/L (≈ 1850 µM); in the test on Aspergillus fumigatus (MTCC 3008, 48 h), 500 mg/L (≈ 926 µM); against Escherichia coli it was 50 mg/L (≈ 92.6 µM); against Bacillus subtilis (MTCC 441, 24 h), 0.15 mg/L (≈ 0.278 µM); in the test with Streptococcus pneumoniae, 250 mg/L (≈ 463 µM).
For `COc1ccc(-c2nn(-c3ccccc3)cc2C2CC(=O)N(c3ccc(F)cc3)C3=C2C(=O)CCC3)cc1` (centres undefined), the MIC against Candida albicans (MTCC 227, 48 h) is 1000 mg/L (≈ 1970 µM); in the test with Aspergillus fumigatus (MTCC 3008, 48 h), 500 mg/L (≈ 985 µM); against Escherichia coli it was 100 mg/L (≈ 197 µM); against Bacillus subtilis (MTCC 441, 24 h), 0.5 mg/L (≈ 0.985 µM); against Streptococcus pneumoniae it was 250 mg/L (≈ 493 µM).
Taken in the same sequence, the figures for `CC1(C)CC(=O)C2=C(C1)N(c1ccc(F)cc1)C(=O)CC2c1cn(-c2ccccc2)nc1-c1ccc([N+](=O)[O-])cc1` (centres undefined) were 1000 mg/L (≈ 1820 µM), 1000 mg/L (≈ 1820 µM), 100 mg/L (≈ 182 µM), 0.25 mg/L (≈ 0.454 µM) and 250 mg/L (≈ 454 µM).
NYSTATIN: the MIC against Candida albicans and with Aspergillus fumigatus was 100 mg/L in each case.
As for `CC1(C)S[C@@H]2[C@H](NC(=O)[C@H](N)c3ccccc3)C(=O)N2[C@H]1C(=O)O` [AMPICILLIN], the MIC in the test on Escherichia coli was found to be 100 mg/L (≈ 286 µM); with Bacillus subtilis (MTCC 441, 24 h), 0.25 mg/L (≈ 0.715 µM); with Streptococcus pneumoniae, 100 mg/L (≈ 286 µM).
Regarding `O=C(N[C@H](CO)[C@H](O)c1ccc([N+](=O)[O-])cc1)C(Cl)Cl` [CHLORAMPHENICOL], the MIC worked out at 50 mg/L (≈ 155 µM) in the test on Escherichia coli; 0.05 mg/L (≈ 0.155 µM) against Bacillus subtilis (MTCC 441, 24 h); 50 mg/L (≈ 155 µM) against Streptococcus pneumoniae.

One may read the MIC as the lowest concentration found to suppress growth. Low readings indicate a more susceptible organism, high ones a less susceptible organism.
